Results from a melting point compilation (Tetko et al.; mined from patent text by program, amines drawn as free bases though some values may be those of a salt).

| melting point | SMILES |
| --- | --- |
| 114 to 117 °C | O=Cc1cc(CSc2c(Cl)cccc2Cl)ccc1O |
| 106 to 108 °C | Cc1cc(C=Cc2ccccc2OCC(O)C(N)C(C)C)on1 (configuration not stated) |
| > 250 °C | O=c1ccc(S(=O)(=O)c2cc3ccc(F)cc3[nH]2)n[nH]1 |
| 125 to 134 °C | CNC(=O)N(O)C(C)c1ccc(F)cc1F (configuration not stated) |
| 142 °C | O=C(Oc1ccccc1)N1C(C2=COc3ccccc3O2)=COc2cccnc21 |
| 174 to 175 °C | CCCn1c(=O)sc2cc(F)c(NC(=O)C=C(CC)NC(=O)OCC)cc21 |
| 111 to 112 °C | O=C(O)c1ccc(NCC(O)C(O)C(O)C(O)CO)cc1 (configuration not stated) |
| 77 to 80 °C | COc1ccc(C(=O)Nc2ccc3ccc(OCCN(C)C)nc3n2)cc1 |
| 284 to 286 °C | CS(=O)(=O)c1cc(C(=O)O)c(N)cc1Cl |
| 139 to 140 °C | O=C(O)C(=O)c1ccc(O)c([N+](=O)[O-])c1 |
| 108 to 110 °C | CCOC(=O)[C@@H](CNC(=O)c1ccccc1)[C@H](O)C(F)(F)F |
| 255 to 257 °C | Fc1cc2c(cc1F)CC(n1cc[nH]c1=S)C2 |
| 120 to 125 °C | NC(=C[N+](=O)[O-])N1CCCC1 |
| 220 °C | CN1C(=O)N(c2cc(Cl)cc(Cl)c2)C(=O)[C@]12CN(CC(=O)O)C[C@H]2c1ccc(C#N)cc1 (relative stereo) |
| 164 to 166 °C | CC(=Nc1cc(C(F)(F)F)cc2nc(C)n(C(C)C)c12)c1ccccc1 |
| 154 °C | O=C(O)CCOCCCc1ccnc(-c2nc(=O)c3ccccc3s2)c1 |
| 98 to 99 °C | COc1cc(CC#N)c(OC)c(C)c1C |
| 73 to 74 °C | COC(=O)c1ccccc1COc1ccccc1Br |
| 175 to 176 °C | Cn1nnnc1-c1cc(-c2ccc(F)cc2)sc1-c1ccc(F)cc1 |
| 215 to 216 °C | O=C(NCCO)c1cccc(-c2cccn3nc(Nc4cccc(C(F)(F)F)c4)nc23)c1 |
| 120 to 122 °C | COc1cc2c(cc1S(=O)(=O)c1ccc(OCc3ccc(Cl)cc3)cc1)CCN(C)CC2 |
| 68 to 72 °C | COC(=O)CCCC#Cc1cc(Cl)ccc1NS(=O)(=O)c1ccc2sc(C)nc2c1 |
| 96 °C | CC(=O)OC1CC(n2cc(C=CBr)c(=O)[nH]c2=O)OC1CC#N (configuration not stated) |
| > 260 °C | O=C(Nc1nnc(-c2ccc(Cl)cc2)s1)c1c(Cl)cccc1Cl |
| 245 to 253 °C | Cc1cn(-c2ccc3c(c2)c2ccccc2n3-c2ccccc2)c(-c2nc(C)cn2-c2ccc3c(c2)c2ccccc2n3-c2ccccc2)n1 |

| melting point | SMILES |
| --- | --- |
| 35 to 38 °C | CCCCCCCCCCNC(=O)c1ccccc1N(CC(=O)OC)CC(=O)OC |
| 195 to 197 °C | O=C(Nc1cccc(NC(=O)C(F)(F)C(F)(F)F)c1)Nc1ccc(Cl)c(Cl)c1 |
| 176 to 178 °C | O=c1[nH]c(C2CCCN(Cc3ccccc3)C2)cc2ccccc12 (configuration not stated) |
| 139 to 141 °C | CC(=O)C(C)=Cc1cc(O)c(O)c([N+](=O)[O-])c1 |
| 252 °C | O=C(O)C=Cc1ccc(-c2ccc3ncnc(Nc4ccc(OCc5cccc(F)c5)c(Cl)c4)c3c2)s1 |
| 180 to 182 °C | O=C(CCc1ccccc1Cl)Nc1c(Cl)ccc2nc(N3CC[C@H](NCCO)C3)ccc12 |
| 100 to 102 °C | OCCC1CC(n2nnc3c(NC4CC4c4ccccc4)nc(Sc4ccc(C(F)(F)F)cc4)nc32)C(O)C1O (configuration not stated) |
| 129 to 131 °C | CN1CCN(CCO)C1=Nc1ccccc1N1CCOCC1 |
| 210 °C | Cc1cc(-c2cnn3c(C(F)(F)F)cc(-c4ccc(OCC(F)(F)F)c(C(F)(F)F)c4)nc23)ccn1 |
| 221 to 224 °C | O=C(c1ccc2n1Cc1ccccc1N(C(=O)c1ccc(-c3cccc4ccccc34)cc1)C2)N(CCO)CCO |
| 91 to 93 °C | COc1cc(OC)cc(C(=CC#N)c2ccc(OC)c(F)c2)c1 |
| 223 to 224 °C | COc1cc(OCCOc2ccccc2)cc2nc(-c3cc(C)nc(C)c3)[nH]c(=O)c12 |
| 227 to 228 °C | CC(/C=C/C=C(\C)C1=Cc2cc(C(C)(C)C)cc(C)c2OC1)=C\C(=O)O |
| 200 °C | CC1(C)CCC(C)(C)c2cc3oc(-c4ccc(CO)cc4)nc3cc21 |
| 179 to 181 °C | COC(=O)c1cc2c3ccccc3n(C(C)=O)c2s1 |
| 105 to 106 °C | O=Cc1cccc(OCc2ccc3ccccc3c2)c1 |
| 165 °C | CC[Si](CC)(CC)O[C@@H](C(=O)OC)[C@@H](NC(=O)OC(C)(C)C)c1ccc(C(N)=O)cc1 |
| 162 to 166 °C | Cc1ccc(-c2ccc3c(c2)C=C(S(=O)(=O)Cl)CCO3)cc1 |
| 287 to 289 °C | CC1(C)C(=O)Nc2cc(-c3nc4ccc(Cl)cc4[nH]3)ccc21 |
| 255 to 257 °C | Cc1cccc2c(=O)n3c(nc12)C(=O)c1cc(F)ccc1-3 |
| 303 °C | O=C(NNC(=O)c1ccccc1O)c1ccccc1O |
| 99 to 102 °C | Cc1ccccc1C[C@H](C(=O)Nc1nc2ccccc2o1)c1ccc(S(C)(=O)=O)cc1 |
| 215 to 216 °C | COc1cccc2c1C(=O)c1c(O)cc(CO)cc1C2=O |
| 87.5 to 89.5 °C | O=C(CC1CSCCC1=O)c1ccc(Br)cc1 (configuration not stated) |
| 58 to 59 °C | Cc1cc(CCCCCCCOc2ccc(C(=O)N(C)C)cc2)on1 |

| melting point | SMILES |
| --- | --- |
| 284 to 286 °C | COc1cc(C(=O)CC(=O)c2ccc(O)cc2O)cc(OC)c1OC |
| 158 to 160 °C | CC(C)(C)OC(=O)NCCN(CCC12CC3CC(CC(C3)C1)C2)C(=O)NCCCc1ccncc1 |
| 152 to 153 °C | CCOC(=O)C(=O)c1oc(=O)[nH]c1-c1ccc(Cl)cc1 |
| 59 to 62 °C | O=C(O)C(=O)c1cccc(Cl)c1 |
| 68 °C | Brc1csc2cc(OCc3ccccc3)ccc12 |
| 83 to 84 °C | COC(=O)c1c(Cl)cc(Cl)cc1NC(=O)C(C)c1ccccc1 (configuration not stated) |
| 47 to 48 °C | O=C(O)CCCCCCCCCCCc1ccccc1 |
| 88 to 90 °C | O=c1c(-c2cccc(C(F)(F)F)c2)c(Cl)cnn1-c1ccc(F)cc1 |
| 277 to 280 °C | C=C(C)C(=O)NNc1ccnc2c(NC(=O)c3c(Cl)cccc3Cl)cccc12 |
| 91 to 93 °C | O=C(CCc1ccccc1)N[C@H](Cc1cccc(Oc2ccccc2)c1)[C@@H](O)c1ccc(F)cc1 (racemic) |
| 156 to 158 °C | O=S1(=O)NCN(CCF)c2ccc(I)cc21 |
| 145 to 147 °C | O=C1CCC(c2nc(-c3ccccc3)c(-c3ccccc3)o2)N1 (configuration not stated) |
| 241 to 243 °C | NS(=O)(=O)c1ccc(N2C(=O)CN(c3ccccc3)C2=O)c(Cl)c1 |
| 198 to 199 °C | COc1cc(OC)cc(C(=O)NC(NC(=NC#N)Nc2cccnc2OC)C(C)(Cl)Cl)c1 (configuration not stated) |
| 76 to 78 °C | CC(C)(C)OC(=O)N1C(=O)CCC1=O |
| 119 to 120 °C | CN(C)CCCC#Cc1cnc(NC(=O)OC(C)(C)C)nc1 |
| 210 to 212 °C | COc1cc(C(=O)N(C(C)C)C2CCCCC2)ccc1Cn1c(C)nc2cccnc21 |
| 200 to 205 °C | Cn1ccc2cc(N3Cc4ccc(OC(F)(F)C(F)Cl)cc4C3=O)ccc21 (configuration not stated) |
| 125 to 127 °C | CC1(C)C=C(C(=O)NC2COC(C)(C)OCC2O)C(C)(C)N1 (configuration not stated) |
| 118 °C | CCCCc1nc(SC)c(C(=O)OCC)n1Cc1cccc(-c2ccccc2S(=O)(=O)NC#N)c1 |
| 195 to 197 °C | COc1cc(Nc2c(C#N)cnc3cc(-c4ccc(CN5CCOCC5)nc4)ccc23)c(Cl)cc1Cl |
| 175 °C | N#CC(CC1CCCCC1)c1n[nH]c2cc(O)ccc12 (configuration not stated) |
| 83 to 84 °C | COCCCn1c(O)nc2ccc(C(F)(F)F)cc21 |
| 172 to 174 °C | Cc1nc2ccc(S(=O)(=O)n3c(COC(C)(C)C(=O)O)cc4cc(Cl)ccc43)cc2s1 |
| 102 to 103 °C | CCCC(=O)c1ccc(OCCCCC(=O)O)c(Cl)c1Cl |

| melting point | SMILES |
| --- | --- |
| 73 to 74 °C | CCc1cc(C(C)=O)c(O)cc1OCCCCCC(C)(C)C(N)=O |
| 112 to 114 °C | CN(C)C=C(C=O)c1ccc(Cl)cc1Cl |
| 127 to 129 °C | CN(c1ccccc1)[C@@H]1C=Cc2ccccc2[C@H]1O |
| 199 to 200 °C | O=C(O)c1cc(Cl)cc2c1NC(c1ccccc1)CC2 (configuration not stated) |
| 259 °C | Cn1cc(-c2cc(-c3cnc4ccccc4c3)ccn2)n(-c2ccc(C(C)(C)C(N)=O)cc2)c1=O |
| 152 to 154 °C | CCC(CC)n1c(=O)n(C)c2c(Oc3c(C)cc(C)cc3C)nc(C)cc21 |
| 192 to 195 °C | COC(=O)c1ccc2c(nc(C)n2Cc2ccccc2)c1C(=O)OC |
| 78 to 79 °C | Cc1c(C#N)ccc(Cl)c1Cl |
| 95 to 96 °C | Cc1cc(C)c(C=CC#N)c(Br)c1 |
| 224 to 230 °C | CC1Cc2cc(O)c(Cl)c(Cl)c2C1=O (configuration not stated) |
| 169 °C | CCOC(=O)N1CCN(c2ccc(O)cc2)CC1 |
| 214 °C | CCOC(=O)C(C)(C)Oc1ccc(-c2ccc(CCNC(=O)c3ccc(C)cc3)cc2)cc1 |
| 75 to 76 °C | CCOC(=O)CCCN(O)C(=O)NCCc1ccc(OC)c(OC)c1 |
| 150 to 154 °C | CCN(CC)C(=O)CCC1CCN(Cc2cnc3cc(NC(=O)c4ccc(-c5ccc(F)cc5)cc4)c(C)cc3c2)CC1 |
| 44 to 51 °C | CC1COC(c2ccccc2)(c2ccc(Cl)nc2)O1 (configuration not stated) |
| 110 to 112 °C | CN(CCOc1ccc(C(N)=O)cc1)CCc1ccc(N)cc1 |
| 105 °C | COC(=O)c1ccc(CC23CCCN2C(=O)N(c2cc(Cl)c(O)c(Cl)c2)C3=O)cc1 (configuration not stated) |
| 94 to 99 °C | CC(O)C1C(=O)N2C(C(=O)OCc3ccccc3)=CCC12 (configuration not stated) |
| 90 to 92 °C | O=CN1C(=O)[C@H]2N=C(Cc3ccccc3)O[C@H]21 |
| 157 to 158 °C | CCCCC#CCCOc1cc(/C=C/C(=O)Nc2ccccc2C(=O)O)ccc1OC |
| 134 to 136 °C | N#CC[C@@H](O)CC(=O)NN |
| 95 to 99 °C | CC(C)NCCCCCOc1ccc(O)cc1 |
| 96 to 98 °C | CCN1c2ncc(CS(=O)(=O)c3ccccc3)cc2C(=O)N(C)c2ccc(Cl)nc21 |

| SMILES | melting point |
| --- | --- |
| CC(=O)N(C)c1cc(-c2ccnc3c(C(=O)c4cccs4)cnn23)ccc1Cl | 191 to 193 °C |
| O=C(CCl)c1ncccn1 | 73 to 80 °C |
| Cc1nc2cc(C(=O)NC3CC3)c(NC(=O)c3cc(C(F)(F)F)nn3-c3ncccc3Cl)c(Cl)c2n1C | 233 to 235 °C |
| O=C1CCN(C(=O)c2ccc(Cl)cc2)CC1 | 61 to 63 °C |
